In patent US8741602B2, “Method for producing glucuronic acid conjugate using Saccharomyces cerevisiae” (Toyama Prefecture, priority 2010, dated 2014):
Read-outs that look alike come from different tables or passages of the source.

Tests used:
[1] = target: T1, UGT1A1 (Homo sapiens, UniProt P22309); details: fission yeast, Dragan et al.; cited from earlier work
T1 construct: host or cells: Schizosaccharomyces pombe
T1 sequence (P22309 26-533): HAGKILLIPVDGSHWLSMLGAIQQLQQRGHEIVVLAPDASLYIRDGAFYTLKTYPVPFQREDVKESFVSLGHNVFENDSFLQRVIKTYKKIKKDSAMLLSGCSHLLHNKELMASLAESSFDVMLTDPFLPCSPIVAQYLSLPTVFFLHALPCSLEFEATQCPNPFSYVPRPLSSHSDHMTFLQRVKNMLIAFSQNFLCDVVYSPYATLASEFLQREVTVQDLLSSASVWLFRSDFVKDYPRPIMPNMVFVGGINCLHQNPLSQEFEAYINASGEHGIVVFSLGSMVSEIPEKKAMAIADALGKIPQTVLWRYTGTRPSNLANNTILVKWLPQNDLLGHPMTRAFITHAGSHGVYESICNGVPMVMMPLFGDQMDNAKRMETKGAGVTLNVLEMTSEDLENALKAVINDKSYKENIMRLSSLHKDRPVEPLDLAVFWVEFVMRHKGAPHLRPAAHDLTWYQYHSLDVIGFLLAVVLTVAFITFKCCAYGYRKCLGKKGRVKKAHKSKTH

[2] = target: T2, hUGT1A1 (Homo sapiens, UniProt P22309); experiment: Glucuronide production in resting S. cerevisiae AH22 cells co-expressing UDPGDH and UGT1A1; details: UGT1A1
T2 sequence (P22309 28-533): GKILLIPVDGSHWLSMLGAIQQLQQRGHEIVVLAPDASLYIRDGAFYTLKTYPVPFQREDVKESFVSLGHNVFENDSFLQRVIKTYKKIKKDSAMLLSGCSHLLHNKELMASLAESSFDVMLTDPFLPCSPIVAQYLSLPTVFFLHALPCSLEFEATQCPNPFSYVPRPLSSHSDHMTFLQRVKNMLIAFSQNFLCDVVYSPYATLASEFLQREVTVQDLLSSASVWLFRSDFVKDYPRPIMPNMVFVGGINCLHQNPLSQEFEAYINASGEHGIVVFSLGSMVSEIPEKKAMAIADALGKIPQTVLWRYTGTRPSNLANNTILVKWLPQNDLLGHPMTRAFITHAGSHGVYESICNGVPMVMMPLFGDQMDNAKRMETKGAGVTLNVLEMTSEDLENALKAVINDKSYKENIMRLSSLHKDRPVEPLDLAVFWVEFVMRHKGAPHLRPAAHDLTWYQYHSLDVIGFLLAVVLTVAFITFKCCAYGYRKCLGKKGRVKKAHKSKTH
Description: To confirm the production of 7-hydroxycoumarine glucuronide in the resting yeast cells containing UDPGDH and UGT, transformants were cultivated in selection medium at 30° C., 48 hrs, and the resultant yeast cells were suspended with appropriate buffer solution containing 0.1-1 mM 7-hydroxycoumarine and 1-8% (w/v) glucose. After incubation at 30° C., 24 hrs, 2-fold volume of chloroform:methanol (3:1, v/v) was added to reaction medium containing yeast cells. Centrifugation of extracts was separated to upper water and lower organic phase. Lower organic phase were evaporated and redissolved in 200 μl acetonitrile. Each phase was analyzed by UPLC system. Condition of analysis are described below; column: Cosmosil 2.5C18-MS-II (2.0 mm×100 mm, nacalai tesque), flow rate 0.5 ml/min, detection 320 nm, temperature 45° C. Condition of gradient elution: water-acetonitrile with 0.5% (v/v) trifluoroacetic acid, 10% (v/v) acetonitrile (4 min), 10-70% acetonitrile (6 min), 70-10% acetonitrile (2 min), 10% acetonitrile (4 min).
To confirm the production of quercetin glucuronide in the resting yeast cells containing UDPGDH and UGT (pAUR/At.UDPGDH+pGYR/hUGT1A1), transformants were cultivated in selection medium at 30° C., 48 hrs, and the resultant yeast cells were suspended with 0.1 M potassium phosphate buffer (pH 7.4) containing 0.2 mM quercetin and 8% (w/v) glucose. After incubation at 30° C., 24 hrs, 2-fold volume of chloroform:methanol (3:1, v/v) was added to reaction medium containing yeast cells. Centrifugation of extracts was separated to upper water and lower organic phase. Lower organic phase were evaporated and redissolved in 200 μl acetonitrile. Quercetin glucuronides in yeast cells was isolated and detected by WAKOPAK™ Navi C30-5 (3 mm×150 mm, Wako Chemical)-column-HPLC system with followed condition; flow rate; 0.4 ml/min, detection; 370 nm, temperature 37° C. Condition of gradient elution: water-acetonitrile with 0.5% (v/v) phosphoric acid, 18% (v/v) acetonitrile (10 min), 18-55% acetonitrile (10 min), 55% acetonitrile (5 min).
To compare the production ability of glucuronide in budding (Saccharomyces cerevisiae) and fission yeast (Schizosaccharomyces pombe) containing UDPGDH and UGT, several transformants (No. 4 in Table 2 and transformant with N-terminal modified UGT1A1) were selected for the assay. These transformants were cultivated in selection medium at 30° C., 48 hrs, and the resultant yeast cells were suspended with appropriate buffer solution containing 0.5 mM 4-methylumberrferone and 8% (w/v) glucose. After incubation at 30° C., 24 hrs, 2-fold volume of chloroform:methanol (3:1, v/v) was added to reaction medium containing yeast cells. Centrifugation of extracts was separated to upper water and lower organic phase. Lower organic phase were evaporated and redissolved in 200 μl acetonitrile. Each phase was analyzed by UPLC system.
Condition of analysis are described below; column: COSMOSIL™ 2.5C18-MS-II (2.0 mm×100 mm, Nacalai Tesque), flow rate 0.5 ml/min, detection 320 nm, temperature 45° C. Condition of gradient elution: water-acetonitrile with 0.1% (v/v) trifluoroacetic acid, 10% acetonitrile (4 min), 10-70% acetonitrile (6 min), 70-10% acetonitrile (2 min), 10% acetonitrile (3 min).

[3] = target: T3, UGT1A6 (Homo sapiens, UniProt P19224); parameters: host or cells: Schizosaccharomyces pombe; details: fission yeast, Dragan et al.; cited from earlier work
T3 sequence (P19224 27-532): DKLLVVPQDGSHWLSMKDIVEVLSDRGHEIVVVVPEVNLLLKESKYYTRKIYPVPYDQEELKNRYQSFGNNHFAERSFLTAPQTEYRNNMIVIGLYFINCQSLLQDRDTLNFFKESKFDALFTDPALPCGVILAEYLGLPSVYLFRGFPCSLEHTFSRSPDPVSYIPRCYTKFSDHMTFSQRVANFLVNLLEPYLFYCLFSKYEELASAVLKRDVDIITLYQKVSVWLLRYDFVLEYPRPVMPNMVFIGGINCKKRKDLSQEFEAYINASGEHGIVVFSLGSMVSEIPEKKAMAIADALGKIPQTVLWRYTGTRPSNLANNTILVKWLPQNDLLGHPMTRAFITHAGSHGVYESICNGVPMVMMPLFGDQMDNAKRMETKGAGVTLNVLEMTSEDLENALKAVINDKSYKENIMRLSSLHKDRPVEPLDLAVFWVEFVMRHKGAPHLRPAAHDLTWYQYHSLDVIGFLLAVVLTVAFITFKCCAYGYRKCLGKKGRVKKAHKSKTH

[4] = target: T3, UGT1A6; experiment: Glucuronide production in resting S. cerevisiae AH22 cells co-expressing UDPGDH and UGT1A6; assay type: cell-based; parameters: expressed in transfected cells; host or cells: Saccharomyces cerevisiae AH22; details: UGT1A6
Description: Each phase was analyzed by UPLC system.
Time course of conversion in the transformant with the highest activity of glucuronidation (AH22: pAUR/At.UDPGDH+pGYR/hUGT1A6) was examined (FIG. 6).
Glucose concentration dependence of conversion in the transformant with the highest activity of glucuronidation (AH22: pAUR/At.UDPGDH+pGYR/hUGT1A6) was examined (FIG. 7).

[5] = target: T4, CYP2D6 and UGT1A8 (Homo sapiens, UniProt P10635); experiment: Resting yeast cells with UDPGDH, human UGT and human P450; assay type: cell-based; details: human P450 2D6 and human UGT1A8; 1 mM 7-ethoxycoumarine
T4 construct: expressed in transfected cells; host or cells: Saccharomyces cerevisiae
Description: To achieve the sequential production of hydroxyl intermediate and glucuronidation, co-expression yeast system containing UDPGDH, UGT, and P450 was constructed using combination of expression vectors (pAUR-ratUDPGDH/UGT1A6 and pPYR/humanCYP).
Each phase was analyzed by UPLC system (FIG. 15 and Table 7).
FIG. 15 indicated reverse phase HPLC elution pattern of metabolites from 7-ethoxycoumarine using resting yeast cells containing UDPGDH, human UGT1A8, and human P450 2D6. […] Each hydroxyl intermediates further were metabolized to corresponding glucuronides by human UGT1A8.

[6] = target: T5, ratCYP1A1 and UGT1A6 (UniProt P00185+P19224); experiment: Resting yeast cells co-expressing UDPGDH, UGT1A6 and rat CYP1A1; assay type: cell-based; details: 1 mM 7-ethoxycoumarine, 8% glucose, 30° C., 72 hrs
T5 construct: expressed in transfected cells; host or cells: Saccharomyces cerevisiae AH22
T5 sequence (P00185 2-524): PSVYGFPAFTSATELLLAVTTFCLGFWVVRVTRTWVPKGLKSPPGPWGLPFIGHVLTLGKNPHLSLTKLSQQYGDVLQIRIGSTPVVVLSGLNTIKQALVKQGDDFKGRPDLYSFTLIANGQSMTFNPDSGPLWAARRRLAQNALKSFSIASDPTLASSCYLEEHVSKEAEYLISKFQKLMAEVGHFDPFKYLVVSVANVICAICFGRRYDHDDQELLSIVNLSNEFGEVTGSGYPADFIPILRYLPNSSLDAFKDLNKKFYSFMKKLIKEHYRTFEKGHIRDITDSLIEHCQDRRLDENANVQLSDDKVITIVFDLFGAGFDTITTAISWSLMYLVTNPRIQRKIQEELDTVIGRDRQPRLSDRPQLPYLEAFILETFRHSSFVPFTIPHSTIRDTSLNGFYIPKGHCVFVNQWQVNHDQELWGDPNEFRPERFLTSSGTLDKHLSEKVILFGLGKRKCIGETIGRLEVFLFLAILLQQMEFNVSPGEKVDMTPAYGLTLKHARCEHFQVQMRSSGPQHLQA
T5 sequence (P19224 27-532): T3 sequence (P19224 27-532)
From the text: In the precursor of most glucuronide, hydroxyl groups are introduced by P450-dependent monooxynenation. To analyze the structure and function of these xenobiotic metabolizing enzymes the expression system of several mammalian P450 and UGT isoforms was constructed in budding yeast cells, Saccharomyces cerevisiae AH22. This in vitro system is able to convert 7-ethoxycoumarine to its glucuronide via hydroxyl intermediate, 7-hydroxycoumarine (Ref 6). Yeast cells lack the ability of production of UDP-glucuronic acid (UDP-GlcUA) from UDP-glucose to synthesize the glucuronide in whole cells. To achieve the sequential production of hydroxyl intermediate and glucuronidation, co-expression yeast system containing UDPGDH, UGT, and P450 was constructed using combination of expression vectors (pAUR-At.UDPGDH/UGT1A6 and pGYR/ratCYP1A1, No. 5 in Table 2). […] Each phase was analyzed by UPLC system (FIG. 13).

[7] = budding yeast, 0.5 mM 4-methylumberrferone, 8% (w/v) glucose, 30° C., 24 hrs

T4 sequence (P10635 whole entry): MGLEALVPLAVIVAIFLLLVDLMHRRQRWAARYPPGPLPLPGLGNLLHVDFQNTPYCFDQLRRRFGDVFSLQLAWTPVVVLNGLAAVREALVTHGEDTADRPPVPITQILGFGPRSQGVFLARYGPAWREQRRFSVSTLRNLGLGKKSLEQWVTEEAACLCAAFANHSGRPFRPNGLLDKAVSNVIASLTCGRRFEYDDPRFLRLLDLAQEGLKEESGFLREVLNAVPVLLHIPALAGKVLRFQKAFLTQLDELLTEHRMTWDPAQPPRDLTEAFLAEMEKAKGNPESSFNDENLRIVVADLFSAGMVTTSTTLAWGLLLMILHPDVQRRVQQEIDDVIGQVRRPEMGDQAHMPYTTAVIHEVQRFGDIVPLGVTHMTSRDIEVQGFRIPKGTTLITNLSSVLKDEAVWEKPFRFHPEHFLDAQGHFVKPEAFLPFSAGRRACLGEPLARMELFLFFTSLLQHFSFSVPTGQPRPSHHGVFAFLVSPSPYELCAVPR

Structure (SMILES) | production of glucuronide [1] [µM/day] | production of glucuronide per biomass dry weight [1] [µmol/day/g dry weight] | production ratio of glucuronide, budding yeast higher than fission yeast [2] | production of glucuronide per biomass dry weight ([2]; budding yeast) [µmol/day/g dry weight] | production of glucuronide [2, 7] [µM/day] | production of glucuronide [3] [µM/day] | production ratio of glucuronide, budding yeast higher than fission yeast [4] | production of glucuronide [4, 7] [µM/day] | metabolites formed (FIG. 15) [5] | sequential P450-UGT metabolism (FIG. 13) [6]
Cc1cc(=O)oc2cc(O[C@@H]3O[C@H](C(=O)O)[C@@H](O)[C@H](O)[C@H]3O)ccc12.O [4-metylumberrferone glucuronide, 4-methylumberrferone glucuronide] | 1.8 | 0.14 | 10 | 2.6 | 20.2 | 3.5 | 50 | 195.7 | – | –
CCOc1ccc2ccc(=O)oc2c1 [7-ethoxycoumarine] | – | – | – | – | – | – | – | – | metabolized to 7-hydroxycoumarine or 3-hydroxy-7-ethoxycoumarine by human P450 2D6 | deethylated by P4501A1 and the resultant 7-hydroxycoumarine (●) was glucuronidated by UGT1A6 to its glucuronide
